Literature values as cited in patent US12133912B2, “Stable pharmaceutical compositions of succinylcholine chloride” (Slayback Pharma LLC., priority 2021, dated 2024).

Key:
[1] = target: T1, cholinergic receptors of the motor end plate (Homo sapiens, UniProt P02708+Q04844+Q07001); settings: after intravenous administration
T1 construct: Succinylcholine combines with the cholinergic receptors of the motor end plate to produce depolarization; from tissue; host or cells: motor end plate of skeletal muscle, in vivo after intravenous administration
T1 sequence (P02708 21-457): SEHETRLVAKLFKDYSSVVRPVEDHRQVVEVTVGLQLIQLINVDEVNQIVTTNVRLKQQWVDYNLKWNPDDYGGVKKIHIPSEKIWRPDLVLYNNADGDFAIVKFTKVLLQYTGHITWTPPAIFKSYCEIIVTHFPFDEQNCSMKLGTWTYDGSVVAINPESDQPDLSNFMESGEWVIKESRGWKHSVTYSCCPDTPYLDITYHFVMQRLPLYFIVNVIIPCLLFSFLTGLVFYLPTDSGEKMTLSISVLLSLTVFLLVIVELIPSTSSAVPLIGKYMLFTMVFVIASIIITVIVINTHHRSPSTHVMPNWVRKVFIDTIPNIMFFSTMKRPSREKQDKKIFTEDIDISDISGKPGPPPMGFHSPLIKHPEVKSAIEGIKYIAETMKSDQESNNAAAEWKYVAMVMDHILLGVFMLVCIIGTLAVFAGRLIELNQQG
T1 sequence (Q07001 22-517): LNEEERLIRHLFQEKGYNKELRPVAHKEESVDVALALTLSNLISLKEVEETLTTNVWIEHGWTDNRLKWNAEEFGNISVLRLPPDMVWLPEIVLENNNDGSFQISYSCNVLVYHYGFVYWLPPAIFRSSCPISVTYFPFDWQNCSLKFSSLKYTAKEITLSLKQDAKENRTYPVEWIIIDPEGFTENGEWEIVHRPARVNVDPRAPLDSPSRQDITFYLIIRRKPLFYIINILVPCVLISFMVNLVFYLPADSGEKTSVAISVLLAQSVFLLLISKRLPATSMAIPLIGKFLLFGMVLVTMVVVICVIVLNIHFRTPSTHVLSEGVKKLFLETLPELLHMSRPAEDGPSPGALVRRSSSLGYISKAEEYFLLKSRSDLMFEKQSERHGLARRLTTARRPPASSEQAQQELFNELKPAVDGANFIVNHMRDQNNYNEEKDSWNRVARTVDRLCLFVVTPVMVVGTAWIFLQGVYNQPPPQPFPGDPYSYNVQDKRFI
T1 sequence (Q04844 21-493): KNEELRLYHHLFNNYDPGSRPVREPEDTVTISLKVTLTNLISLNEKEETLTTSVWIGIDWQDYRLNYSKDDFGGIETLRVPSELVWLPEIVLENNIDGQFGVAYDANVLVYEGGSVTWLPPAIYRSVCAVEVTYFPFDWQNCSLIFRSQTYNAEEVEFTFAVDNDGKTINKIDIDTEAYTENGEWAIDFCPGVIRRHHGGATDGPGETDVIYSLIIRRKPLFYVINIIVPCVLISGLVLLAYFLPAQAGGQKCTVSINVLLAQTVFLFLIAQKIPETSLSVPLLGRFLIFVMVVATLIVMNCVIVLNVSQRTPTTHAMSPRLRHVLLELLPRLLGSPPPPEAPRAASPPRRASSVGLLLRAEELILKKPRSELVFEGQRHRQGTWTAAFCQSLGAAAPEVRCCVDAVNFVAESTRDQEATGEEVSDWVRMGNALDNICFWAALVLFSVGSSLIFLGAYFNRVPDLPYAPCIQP
T1 sequence (P11230 24-501 partner): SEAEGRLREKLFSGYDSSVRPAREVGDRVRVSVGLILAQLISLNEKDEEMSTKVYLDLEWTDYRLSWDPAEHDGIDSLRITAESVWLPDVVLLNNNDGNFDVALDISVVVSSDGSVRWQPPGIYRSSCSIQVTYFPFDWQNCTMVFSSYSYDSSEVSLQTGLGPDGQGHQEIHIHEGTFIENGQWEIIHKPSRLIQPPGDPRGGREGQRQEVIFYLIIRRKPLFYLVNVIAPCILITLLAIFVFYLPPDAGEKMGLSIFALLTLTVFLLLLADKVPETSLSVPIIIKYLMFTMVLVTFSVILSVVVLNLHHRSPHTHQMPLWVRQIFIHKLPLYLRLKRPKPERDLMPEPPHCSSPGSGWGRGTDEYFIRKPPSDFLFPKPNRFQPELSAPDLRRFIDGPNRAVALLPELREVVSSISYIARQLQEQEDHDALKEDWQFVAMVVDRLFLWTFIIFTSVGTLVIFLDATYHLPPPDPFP

## C[N+](C)(C)CCOC(=O)CCC(=O)OCC[N+](C)(C)C [Succinylcholine chloride, 2,2′-[(1,4-dioxo-1,4-butanediyl)bis(oxy)]bis[N,N,Ntrimethylethanaminium] dichloride]
[1]
  Onset of flaccid paralysis: less than one
alcohol
  Solubility in alcohol: slightly soluble
ether
  Solubility in ether: practically insoluble
water
  Solubility in water: freely soluble
